Laboratory results from US6127397A, “Optically active (R)-(E)-(4-substituted-phenyl-1,3-dithiolan-2-ylidene)-1-imidazolylaceto nitrile derivative, antifungal composition comprising the same, and method for producing the same” (Nihon Nohyaku Co., Ltd., priority 1996, dated 2000).
In brackets after ≈: the same amount, converted by molar mass. Where two headings read alike, the source gives them in different places.

Assays:
Assay in all cases: In vitro antifungal activity (MIC), SGA agar plate, 27° C., 7 days
[1] = system: Trichophyton mentagrophytes IFO 5811; format: cell-based; conditions: for MIC: Trichophyton mentagrophytes, IFO5811, 168 h, T. mentagrophytes IFO 5811, read-out: MIC value against Trichophyton
Method: (§1) In vitro antifungal activity of compounds against dormatophytes
Trichophyton mentagrophytes IFO 5811
(§2) Preparation of inoculation fungal solution:
(§3) To a strain cultured on Sabouraud's glucose agar (SGA) slant medium at 27° C. for 1 to 2 weeks was added 0.1% (v/v) Tween 80-added sterilized physiological saline solution, followed by rubbing with a platinum spatula. The resulting suspension of conidia was filtered through a sterilized gauze to eliminate mycelium mass. Thereafter, the conidia was counted by an erythrocytometer (Thoma) The suspension of the conidia was diluted with 0.1% (v/v) Tween 80-added sterilized physiological saline solution so as to have a concentration of 1×10^6 conidia/ml to obtain an inoculation fungal solution.
(§4) Each compound was dissolved into dimethyl sulfoxide (DMSO) to prepare a diluent having a […]. The concentration of DMSO in a medium was adjusted to hair 1% (v/v).
(§5) Measurement of antifungal activity:
(§6) A SGA plate medium containing a given amount of a compound (20 ml/dish) was prepared. A loopful of the inoculation fungal solution was applied in the form of a line to each plate medium at a length of about 15 mm, and was allowed to stand for cultivation at 27° C. for 7 days. The minimum inhibitory concentration (MIC) of the compound at which a growth of a microorganism cannot be visually recognized was determined.

[2] = system: Trichophyton mentagrophytes TIMM 2789; format: cell-based; conditions: for MIC: Trichophyton mentagrophytes, TIMM2789, 168 h, T. mentagrophytes TIMM 2789, read-out: MIC value against Trichophyton
Method: as §1
Trichophyton mentagrophytes TIMM 2789
as §2, §3, §4, §5, §6

[3] = system: Trichophyton rubrum IFO 6204; format: cell-based; conditions: for MIC: Trichophyton rubrum, IFO6204, 168 h, T. rubrum IFO 6204, read-out: MIC value against Trichophyton
Method: as §1
Trichophyton rubrunm IFO 6204
as §2, §3, §4, §5, §6

T. rubrum IFO 5805 = format: cell-based, Trichophyton rubrum; conditions: for MIC: Trichophyton rubrum, IFO5805, 168 h, read-out: MIC value against Trichophyton

Compound | MIC value against Trichophyton ([1]; T. mentagrophytes IFO 5811) | MIC [1] | MIC value against Trichophyton ([2]; T. mentagrophytes TIMM 2789) | MIC [2] | MIC value against Trichophyton ([3]; T. rubrum IFO 6204) | MIC value against Trichophyton ([3]; T. rubrum IFO 6204, listed as 2') | MIC value against Trichophyton (T. rubrum IFO 5805) | MIC (T. rubrum IFO 5805) | MIC [3] | MIC value against Trichophyton ([2]; T. mentagrophytes TIMM 2789, listed as 6') | MIC value against Trichophyton ([1]; T. mentagrophytes IFO 5811, listed as 12') | MIC value against Trichophyton ([1]; T. mentagrophytes IFO 5811, listed as 8') | MIC value against Trichophyton (T. rubrum IFO 5805; listed as 8')
N#C/C(=C1/SC[C@@H](c2ccc(F)cc2)S1)n1ccnc1 [Compound No. 1, (R)-(E)-[4-(4-fluorophenyl)-1,3-dithicolan-2-ylidene]-1-imidazolylacetonitrile] | > 0.64 µg/mL | 0.64 µg/mL (≈ 2.11 µM) | 0.64 µg/mL (≈ 2.11 µM) | 0.32 µg/mL (≈ 1.05 µM) | 0.32 µg/mL (≈ 1.05 µM) | – | 0.64 µg/mL (≈ 2.11 µM) | 0.32 µg/mL (≈ 1.05 µM) | 0.16 µg/mL (≈ 0.527 µM) | – | – | – | –
Cc1ccccc1[C@@H]1CS/C(=C(/C#N)n2ccnc2)S1 [compound 6] | – | 0.32 µg/mL (≈ 1.07 µM) | 0.08 µg/mL (≈ 0.267 µM) | – | – | – | 0.32 µg/mL (≈ 1.07 µM) | 0.16 µg/mL (≈ 0.534 µM) | 0.08 µg/mL (≈ 0.267 µM) | 0.32 µg/mL (≈ 1.07 µM) | – | – | –
N#C/C(=C1/SC[C@@H](c2ccccc2C(F)(F)F)S1)n1ccnc1 [compound 10] | 0.64 µg/mL (≈ 1.81 µM) | 0.32 µg/mL (≈ 0.906 µM) | 0.32 µg/mL (≈ 0.906 µM) | 0.16 µg/mL (≈ 0.453 µM) | 0.08 µg/mL (≈ 0.226 µM) | – | 0.08 µg/mL (≈ 0.226 µM) | 0.04 µg/mL (≈ 0.113 µM) | 0.04 µg/mL (≈ 0.113 µM) | – | – | – | –
N#C/C(=C1/SC[C@@H](c2ccccc2F)S1)n1ccnc1 [compound 5] | 0.16 µg/mL (≈ 0.527 µM) | 0.08 µg/mL (≈ 0.264 µM) | 0.04 µg/mL (≈ 0.132 µM) | 0.02 µg/mL (≈ 0.0659 µM) | – | – | – | 0.04 µg/mL (≈ 0.132 µM) | 0.01 µg/mL (≈ 0.033 µM) | – | – | – | –
N#C/C(=C1/SC[C@@H](c2ccccc2OC(F)F)S1)n1ccnc1 [compound 9] | 2.56 µg/mL (≈ 7.29 µM) | 1.28 µg/mL (≈ 3.64 µM) | 1.28 µg/mL (≈ 3.64 µM) | 0.64 µg/mL (≈ 1.82 µM) | 0.64 µg/mL (≈ 1.82 µM) | – | 0.64 µg/mL (≈ 1.82 µM) | 0.32 µg/mL (≈ 0.911 µM) | 0.32 µg/mL (≈ 0.911 µM) | – | – | – | –
N#C/C(=C1/SC[C@@H](c2ccc(Br)cc2Br)S1)n1ccnc1 [compound 11] | – | 0.04 µg/mL (≈ 0.0903 µM) | – | 0.02 µg/mL (≈ 0.0451 µM) | 0.02 µg/mL (≈ 0.0451 µM) | – | 0.04 µg/mL (≈ 0.0903 µM) | 0.02 µg/mL (≈ 0.0451 µM) | 0.01 µg/mL (≈ 0.0226 µM) | – | – | – | –
N#C/C(=C1/SC[C@@H](c2ccccc2Br)S1)n1ccnc1 [compound 8] | 0.04 µg/mL (≈ 0.11 µM) | – | 0.04 µg/mL (≈ 0.11 µM) | 0.02 µg/mL (≈ 0.0549 µM) | 0.02 µg/mL (≈ 0.0549 µM) | – | 0.01 µg/mL (≈ 0.0275 µM) | – | 0.01 µg/mL (≈ 0.0275 µM) | – | – | 0.16 µg/mL (≈ 0.439 µM) | 0.04 µg/mL (≈ 0.11 µM)
N#C/C(=C1/SC[C@@H](c2ccc(F)cc2F)S1)n1ccnc1 [compound 7] | 0.32 µg/mL (≈ 0.996 µM) | 0.16 µg/mL (≈ 0.498 µM) | 0.08 µg/mL (≈ 0.249 µM) | 0.04 µg/mL (≈ 0.124 µM) | 0.04 µg/mL (≈ 0.124 µM) | – | 0.16 µg/mL (≈ 0.498 µM) | 0.08 µg/mL (≈ 0.249 µM) | 0.02 µg/mL (≈ 0.0622 µM) | – | – | – | –

Next, values leading:

MIC value against Trichophyton ([1]; T. mentagrophytes IFO 5811) | MIC [1] | MIC value against Trichophyton ([2]; T. mentagrophytes TIMM 2789) | MIC [2] | MIC value against Trichophyton ([3]; T. rubrum IFO 6204) | MIC value against Trichophyton ([3]; T. rubrum IFO 6204, listed as 2') | MIC value against Trichophyton (T. rubrum IFO 5805) | MIC (T. rubrum IFO 5805) | MIC [3] | MIC value against Trichophyton ([2]; T. mentagrophytes TIMM 2789, listed as 6') | MIC value against Trichophyton ([1]; T. mentagrophytes IFO 5811, listed as 12') | MIC value against Trichophyton ([1]; T. mentagrophytes IFO 5811, listed as 8') | MIC value against Trichophyton (T. rubrum IFO 5805; listed as 8') | Compound
> 0.64 µg/mL | 0.64 µg/mL (≈ 2 µM) | > 0.64 µg/mL | 0.32 µg/mL (≈ 1 µM) | 0.16 µg/mL (≈ 0.5 µM) | 0.64 µg/mL (≈ 2 µM) | > 0.64 µg/mL | 0.64 µg/mL (≈ 2 µM) | – | – | – | – | – | N#C/C(=C1/SC[C@@H](c2cccc(Cl)c2)S1)n1ccnc1 [Compound No. 2]
0.04 µg/mL (≈ 0.1 µM) | 0.02 µg/mL (≈ 0.0502 µM) | 0.02 µg/mL (≈ 0.0502 µM) | 0.01 µg/mL (≈ 0.0251 µM) | 0.02 µg/mL (≈ 0.0502 µM) | – | 0.02 µg/mL (≈ 0.0502 µM) | 0.01 µg/mL (≈ 0.0251 µM) | 0.01 µg/mL (≈ 0.0251 µM) | – | – | – | – | N#C/C(=C1/SC[C@@H](c2ccc(Br)cc2Cl)S1)n1ccnc1 [compound 13, (R)-(E)-[4-(2-chloro-4-bromophenyl) -1,3-dithiolan-2-ylidene]-1-imidazolylacetonitrile]
– | > 0.08 µg/mL | – | > 0.08 µg/mL | > 0.08 µg/mL | – | – | > 0.08 µg/mL | 0.08 µg/mL (≈ 0.22 µM) | – | – | – | – | N#C/C(=C1/SC[C@@H](c2ccc(Br)cc2)S1)n1ccnc1 [compound 3]
– | > 0.08 µg/mL | – | > 0.08 µg/mL | > 0.08 µg/mL | – | – | > 0.08 µg/mL | 0.08 µg/mL (≈ 0.25 µM) | – | – | – | – | N#C/C(=C1/SC[C@@H](c2ccc(Cl)cc2)S1)n1ccnc1 [compound 4]
0.04 µg/mL (≈ 0.118 µM) | – | 0.04 µg/mL (≈ 0.118 µM) | 0.02 µg/mL (≈ 0.0592 µM) | 0.04 µg/mL (≈ 0.118 µM) | – | 0.04 µg/mL (≈ 0.118 µM) | 0.02 µg/mL (≈ 0.0592 µM) | 0.02 µg/mL (≈ 0.0592 µM) | – | 0.16 µg/mL (≈ 0.474 µM) | – | – | N#C/C(=C1/SC[C@@H](c2ccc(F)cc2Cl)S1)n1ccnc1 [compound 12]
